In PubChem BioAssay AID1259334 (Broad Institute, 2017) one finds AC50 data, which are given here for 77 molecules.

Active and inactive are the calls of the source. Rule as the data show it: active = AC50 below about 11 µM. Some results are limits rather than exact numbers.

For this test, the system named is B cell line, TNFa signaling counterscreen reporter. The test is described as follows: TNFa pathway inhibition counter-screen, B-lineage cells – dose response (AID 1259334).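 Also: cells stimulated with TNFa after compound preincubation.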 For orientation: The purpose of a counterscreen is to sort out artefacts and off-target activity.
With `CC1=C(O)C(=O)C=C2C1=CC=C1C2(C)CCC2(C)C3CC(C)(C(=O)O)CCC3(C)CCC12C` (configuration not stated), the AC50 (as a rule, the concentration giving half of the maximal activity seen) is 0.414 µM.

For the molecule `COc1ccc(C(=O)O/N=C2\C(=O)N(C)c3ccccc32)cc1`, the AC50 was 7.39 µM.

`O=C(Nc1nc2ccccc2s1)c1ccc(OCC2CCCO2)cc1` (configuration not stated): the half-maximal activity concentration (AC50) is 10.2 µM.

`N#C[C@H]1[C@H](c2ccc(C#Cc3ccccc3F)cc2)[C@H](CO)N1C(=O)C1CC1`: the AC50 is 11.3 µM.

Take `Cc1ccc(-c2cc(C(=O)N(C)CC(=O)Nc3ccccc3Br)c3ccccc3n2)o1`: the AC50 was 11.1 µM.

In the case of `C[C@@H]1CN([C@@H](C)CO)C(=O)c2c(c3ccccc3n2C)-c2ccccc2CO[C@H]1CN(C)C(=O)Nc1cccc(C(F)(F)F)c1`, the concentration at half-maximal activity (AC50) is 10.9 µM.

On to `C=C1C(=O)OC2CC1C(O)CC(C)=CCCC(C)=CC(O)CC2C` (configuration not stated), for which the AC50 is 2.27 µM.

On to `Cc1ccsc1C(=O)OCC(=O)c1cc(C)n(CC2CCCO2)c1C` (configuration not stated), for which the AC50 is 0.0426 µM.

`COC(=O)C1=C(C(=O)OC)C2OC1c1cc3ccccc3cc12`: the AC50 is 0.519 µM.

On to `COc1ccc(/C=C2/CCC(CN3CCOCC3)C2=O)cc1` (configuration not stated), for which the AC50 was 2.69 µM.

In the case of `C[C@H]1CN([C@@H](C)CO)C(=O)c2c(c3ccccc3n2C)-c2ccccc2CO[C@@H]1CN(C)C(=O)Nc1cccc(C(F)(F)F)c1`, the AC50 was 9.38 µM.

For `CC(=O)OCC12CC(OC(=O)CC(C)C)C(C)=CC1OC1C(O)C(OC(C)=O)C2(C)C12CO2` (configuration not stated), the AC50 was 0.00346 µM.

`COc1ccc2c3c(n(C)c2c1)[C@@H](CO)N(C(=O)Nc1ccc(F)cc1)CC31CN(Cc2ccccc2F)C1`: the AC50 was > 20 µM (inactive).

`Cc1noc(C)c1S(=O)(=O)N(C)C[C@H]1OCc2ccccc2-c2c(n(C)c3ccccc23)C(=O)N([C@@H](C)CO)C[C@H]1C`: the AC50 was > 20 µM (inactive).

With `NCCOc1ccc(C23CC4CC(CC(C4)C2)C3)cc1`, the AC50 was 4.61 µM.

On to `COc1ccc2c3c(n(C)c2c1)[C@H](CO)N(C(=O)Nc1ccc(F)cc1)CC31CCN(C(=O)c2ccc3c(c2)OCO3)CC1`, for which the AC50 was > 20 µM (inactive).

With `NC(=NCCCCCCN=C(N)/N=C(\N)Nc1ccc(Cl)cc1)/N=C(\N)Nc1ccc(Cl)cc1`, the AC50 was 10.5 µM.

Consider `c1ccc2c(c1)OCC(C1=NCCN1)O2` (configuration not stated), for which the AC50 was > 20 µM (inactive).

For `C[C@@H]1CN([C@H](C)CO)C(=O)c2c(c3ccccc3n2C)-c2ccccc2CO[C@H]1CN(C)Cc1cccc(C(F)(F)F)c1`, the AC50 is > 20 µM (inactive).

In the case of `CS(=O)(=O)c1ccc(C(=O)OCC(=O)NC(=O)C2CCCCC2)cc1[N+](=O)[O-]`, the AC50 is 2.79 µM.

For `CC1CC(C)C(=O)C(C(CC2CC(=O)NC(=O)C2)OC(=O)CC(=O)c2ccccc2)C1` (configuration not stated), the AC50 was 2.17 µM.

For the molecule `CCC(C)(O)C(=O)OC1C(=O)OC2CC3C(C)=CC(=O)C(O)C3(C)C3C4(O)OCC23C1C(C)C4O` (configuration not stated), the AC50 is 0.0228 µM.

Take `O=C(Nc1ccccn1)c1ccc(-c2ccccc2)cc1`: the AC50 was 2.91 µM.

As for `COc1ccc(CN(CCC(c2ccccc2)c2ccc(OC(C)C)cc2)C(=O)CCl)cc1OC` (configuration not stated), the AC50 is 1.46 µM.

Regarding `COc1c(-c2coc3cc4c(cc3c2=O)CC(O)C(C)(C)O4)ccc2c1C=CC(C)(C)O2` (configuration not stated), the half-maximal activity concentration (AC50) is 11 µM.

For the molecule `CC(=O)Nc1ccc(Sc2ccc([N+](=O)[O-])o2)cc1`, the AC50 was 1.64 µM.

As to `CCCNC(=O)N1[C@@H](C#N)[C@H](c2ccc(-c3cccc(OC)c3)cc2)[C@@H]1CO`, the AC50 is > 20 µM (inactive).

`Cc1cc(OCC(=O)OCC(=O)NCc2ccco2)ccc1Cl`: the AC50 is > 20 µM (inactive).

On to `COc1cccc(-c2cc(=O)c3cc(OC)ccc3o2)c1`, for which the AC50 was 3.07 µM.

On to `CC1CC(C)(C)Nc2ccc(OC(=O)c3ccco3)cc21` (configuration not stated), for which the concentration at half-maximal activity (AC50) is 2.42 µM.

Consider `C[C@@H]1CN([C@H](C)CO)C(=O)c2c(c3ccccc3n2C)-c2ccccc2CO[C@H]1CN(C)C(=O)c1cc(Cl)cc(Cl)c1`, for which the AC50 is > 20 µM (inactive).

As to `O=C1C=CC2C3C(=O)N(c4ccccc4)C(=O)C3C1N2Cc1ccccc1` (configuration not stated), the AC50 is 1.52 µM.

`CC1CC(C)C(=NNC(N)=O)C(C(O)CC2CCC(=O)NC2=O)C1` (configuration not stated): the AC50 was 0.188 µM.

For `C[n+]1c(-c2ccccc2)cc2c(=Cc3ccc([N+](=O)[O-])cc3)c3ccccc3n21`, the AC50 is 2.96 µM.

With `NC(c1csc(NC(=O)Nc2cccc(Cl)c2)n1)c1ccccc1Cl` (configuration not stated), the AC50 is 7.41 µM.

As to `COc1ccc(CC2C(=O)NC(C)C(=O)N(C)C3C(=O)N(C)C(Cc4ccc(O)c(c4)Oc4ccc(cc4)C3O)C(=O)NC(C)C(=O)NC(C)C(=O)N2C)cc1` (configuration not stated), the AC50 was 0.0133 µM.

Take `CNc1c2cccc(C)c2nc2c(C(=O)NCCN(C)C)cccc12`: the AC50 was 0.583 µM.

Consider `COc1ccc(S(=O)(=O)N(C)C[C@H]2Oc3ccc(NC(=O)Nc4ccc(C(F)(F)F)cc4)cc3C(=O)N([C@@H](C)CO)C[C@@H]2C)cc1`, for which the AC50 is > 20 µM (inactive).

`CN(C)c1ccc(C=c2c3cc(O)ccc3n3c2cc(-c2ccccc2)[n+]3C)cc1`: the AC50 was 2.46 µM.

Take `CC(C)CC#Cc1ccc([C@@H]2[C@H]3CN(C(=O)Nc4ccccc4)CCCCN3[C@H]2CO)cc1`: the AC50 was 6.52 µM.

As to `COc1ccc(S(=O)(=O)Nc2ccc3c(c2)C(=O)N([C@H](C)CO)C[C@@H](C)[C@H](CN(C)Cc2ccc(C(F)(F)F)cc2)OCCCC[C@@H](C)O3)cc1`, the concentration at half-maximal activity (AC50) is 8.15 µM.

For the molecule `Cc1ccnc(NC(=O)c2ccc(OCC3CCCO3)cc2)c1` (configuration not stated), the AC50 is 5.1 µM.

`N#C[C@@H]1[C@H](c2ccc(C#CC3CCCCC3)cc2)[C@@H](CO)N1S(=O)(=O)c1ccccc1`: the AC50 is 7.1 µM.

`COc1ccc(C#Cc2ccc([C@H]3[C@@H](CO)N4CCCCN(S(=O)(=O)c5cn(C)cn5)C[C@H]34)cc2)cc1`: the concentration at half-maximal activity (AC50) is 8.82 µM.

Regarding `Cc1ccccc1NC(=O)c1nc(S(C)(=O)=O)ncc1Cl`, the AC50 was 1.96 µM.

In the case of `C[C@@H]1CN([C@@H](C)CO)S(=O)(=O)c2ccc(C#Cc3ccccc3F)cc2O[C@H]1CN(C)C(=O)Cc1cccnc1`, the AC50 was > 20 µM (inactive).

As for `CSC1SCC2C(=O)N(C)C(C(C)C)C(=O)OCC(NC(=O)c3cnc4ccccc4n3)C(=O)NC(C)C(=O)N(C)C1C(=O)N(C)C(C(C)C)C(=O)OCC(NC(=O)c1cnc3ccccc3n1)C(=O)NC(C)C(=O)N2C` (configuration not stated), the AC50 is < 0.0005 µM.

For `CC(=O)OC1C(=O)OCC23CCC4(C)OC4C2OC2CC(OC(=O)C=CC=CC(=O)OCCC1C)C3(C)C21CO1` (configuration not stated), the concentration at half-maximal activity (AC50) is 0.00412 µM.

Take `C[C@@H]1CN([C@@H](C)CO)C(=O)c2ccccc2-c2ccccc2CO[C@@H]1CN(C)C(=O)c1cc(Cl)cc(Cl)c1`: the AC50 is > 20 µM (inactive).

`O=C1NC2C(=CC(O)C(O)C2O)c2cc3c(c(O)c21)OCO3` (configuration not stated): the AC50 was 0.0423 µM.

As to `Cc1ccc(S(=O)(=O)N[C@@H](Cc2ccccc2)C(=O)CCl)cc1`, the AC50 is 1.2 µM.

As to `O=S(c1ccccc1O)S(=O)c1ccccc1O` (configuration not stated), the AC50 is > 20 µM (inactive).

Consider `CCOc1ccc(OCc2cccc(C(=O)N3CCOCC3)c2)cc1`, for which the concentration at half-maximal activity (AC50) was 2.84 µM.

`CC=Cc1cc2c(c(=O)o1)C(=O)C(O)C(C)O2` (configuration not stated): the AC50 was 10.4 µM.

As to `N#Cc1c(Br)n(C2OC(CO)C(O)C2O)c2ncnc(N)c12` (configuration not stated), the AC50 was 1.16 µM.

On to `CC(C)NC(=O)N1Cc2cc(C(=O)NC3Cc4ccccc4C3)nc(-c3cccc(-c4cccnc4)c3)c2[C@@H]1CCO`, for which the AC50 was 7.2 µM.

As to `Cc1noc(C)c1S(=O)(=O)Nc1ccc2c(c1)C(=O)N([C@H](C)CO)C[C@@H](C)[C@H](CN(C)C(=O)Nc1cccc3ccccc13)OCCCC[C@@H](C)O2`, the AC50 is > 20 µM (inactive).

Consider `CC(C)CCCCCCCCCCCCC(=O)NCC(=O)NC1C(O)C(O)C(Nc2ncnc3nc[nH]c23)OC1C(O)CO` (configuration not stated), for which the AC50 is 0.00421 µM.

As to `CS(=O)(=O)c1ccc(C(=O)OCC(=O)NC(=O)C2COc3ccccc3O2)cc1[N+](=O)[O-]` (configuration not stated), the AC50 is 5.1 µM.

Consider `COc1ccc2c3c([nH]c2c1)[C@H](CO)N(C(=O)Nc1ccc(F)cc1)CC31CCN(C(=O)c2ccccc2F)CC1`, for which the AC50 is 6.12 µM.

Take `CCN(CC)CCCNc1nc2ccccc2c2[nH]c3ccc(OC)cc3c12`: the AC50 was 2.11 µM.

In the case of `Cc1ccc(OC(=O)N(C)C[C@@H]2OCc3ccccc3-c3c(n(C)c4ccccc34)C(=O)N([C@@H](C)CO)C[C@H]2C)cc1`, the AC50 is 7.67 µM.

For the molecule `O=C1NC2C(O)C(O)C(O)C(O)C2c2cc3c(c(O)c21)OCO3` (configuration not stated), the AC50 was 0.125 µM.

Take `O=C(Nc1ccccc1F)N1C[C@@H]2N[C@H](C1)C2c1ccc(/C=C/c2ccccc2)cc1` (some centres not stated): the half-maximal activity concentration (AC50) was 1.39 µM.

For `COc1cccc(C#Cc2ccc([C@H]3[C@@H](C#N)N(C(=O)c4ccccn4)[C@@H]3CO)cc2)c1`, the AC50 was 10.3 µM.

On to `CC(C)c1ccc(NC(=O)Nc2nc(C(N)COCc3ccccc3)cs2)cc1` (configuration not stated), for which the AC50 was 1.78 µM.

For the molecule `Cc1ccc2nc(C(F)(F)F)c(C#N)c(N)c2c1`, the AC50 is 7.61 µM.

In the case of `COC(=O)c1ccc2nc(NC(=O)C(C)(C)C)sc2c1`, the AC50 was 2.32 µM.

For the molecule `O=C(Nc1ccc(C(F)(F)F)cc1)Nc1ccc2c(c1)[C@H]1C[C@@H](CC(=O)N3CCc4ccccc4C3)O[C@@H](CO)[C@H]1O2`, the AC50 is > 7 µM (inactive).

Regarding `C[C@@H]1CN([C@@H](C)CO)C(=O)c2ccccc2-c2ccccc2CO[C@@H]1CN(C)Cc1ccc(Oc2ccccc2)cc1`, the AC50 was > 20 µM (inactive).

`CCC(=O)NC(c1ccccc1OC)c1ccc2cccnc2c1O` (configuration not stated): the AC50 was 9.46 µM.

With `COc1cccc(S(=O)(=O)N(C)C[C@@H]2OCc3ccccc3-c3c(n(C)c4ccccc34)C(=O)N([C@@H](C)CO)C[C@@H]2C)c1`, the AC50 is > 20 µM (inactive).

`C[C@@H]1CN([C@@H](C)CO)C(=O)c2c(c3ccccc3n2C)-c2ccccc2CO[C@H]1CN(C)S(=O)(=O)c1ccc([N+](=O)[O-])cc1`: the AC50 is > 20 µM (inactive).

For the molecule `C[C@H](CO)N1C[C@H](C)[C@@H](CN(C)Cc2ccc(Oc3ccccc3)cc2)OCc2ccccc2-c2ccccc2C1=O`, the AC50 is 7.02 µM.

`COc1ccc(S(=O)(=O)Nc2ccc3c(c2)C(=O)N([C@@H](C)CO)C[C@@H](C)[C@@H](CN(C)Cc2ccc(C(F)(F)F)cc2)OCCCC[C@@H](C)O3)cc1`: the AC50 was > 20 µM (inactive).

As to `CO[C@@H](CN(C)S(=O)(=O)c1ccc(Cl)cc1)[C@H](C)CN(Cc1ccccc1Cl)[C@@H](C)CO`, the AC50 was > 20 µM (inactive).

Turning to `c1ccn2cc(-c3ccc4c(c3)OCCO4)nc2c1`, the concentration at half-maximal activity (AC50) is 9.69 µM.
